For one assay, the target named is AChE (electric eel) (Electrophorus electricus, UniProt O42275). Put plainly: biochemical. Conditions: for inhibition at 100 µM: read-out: AChE (%) percentage of inhibition. Here is the method:
(§1) The in vitro testing of ChEs inhibition was performed according to the modified Ellman’s method. […] The percentage of inhibition activity was defined for all compounds.
(§2) The in vitro testing of ChEs inhibition was performed on 96-well microplate reader, Synergy^TM HT, BioTek, Vinnoski, USA.
(§3) The method originally developed by Ellman was used with slight modifications. The measurement of AChE and BuChE inhibitory activity was performed in a 96-well microplate reader. 170 μL of 0.1 M phosphate buffer (pH 7.0), 20 μL of AChE (electric eel) or BuChE (equine serum) in phosphate solution (2.3 U/mL), 20 μL of the tested compound in methanol and 20 μL of 10 mM (5,5′-dithiobis(2-nitrobenzoic acid), DTNB, Ellman’s Reagent) were mixed and incubated at 37 °C for 15 min.
Then 20 μL of 7.5 mM acetylthiocholine iodide (ATCI)/butyrylthiocholine iodide (BTCI) were added. […] Each measurement was repeated five times (n = 5). There was prepared one set of mixtures as a control (Abscontrol), which contained an equal volume of methanol instead of the tested samples.
(§4) The percentage ability to inhibit AChE and BuChE at the concentration 100 µM was tested for all compounds. The inhibitory rates IR (%) were calculated according to the Equation (1). IR = [1 - (Abssample/Abscontrol)] × 100(1)

Another assay deals with T1, BuChE (equine serum) (Equus caballus, UniProt P81908).
T1 construct: 20 μL of AChE (electric eel) or BuChE (equine serum) in phosphate solution (2.3 U/mL); from tissue; host or cells: equine serum
Put plainly: BuChE inhibition, modified Ellman's method. The class given is biochemical. Conditions: for inhibition at 100 µM / BuChE (%) percentage of inhibition: mean ± SD (n = 5); for IC50: n = 3 per concentration. Here is the method:
as §1, §2, §3
Then 20 μL of 7.5 mM acetylthiocholine iodide (ATCI)/butyrylthiocholine iodide (BTCI) were added. […] […] There was prepared one set of mixtures as a control (Abscontrol), which contained an equal volume of methanol instead of the tested samples.
as §4
The values were calculated by non-linear regression of the concentration-response curve using GraphPad Prism 5.0 software, according to the Equation (2):Y = Ymin + (Ymax − Ymin)/(1 + [(X^HillSlope)/(IC50^HillSlope)])(2)
(In general: DTNB colorimetry detects thiols as they appear.)

[1] abbreviates: at 100 µM, read-out: BuChE (%) percentage of inhibition.
Setting [2] is: read-out: BuChE (%) percentage of inhibition, at 100 µM.

Where two headings read alike, the source gives them in different places.

Chain of AChE (electric eel) (O42275 24-633): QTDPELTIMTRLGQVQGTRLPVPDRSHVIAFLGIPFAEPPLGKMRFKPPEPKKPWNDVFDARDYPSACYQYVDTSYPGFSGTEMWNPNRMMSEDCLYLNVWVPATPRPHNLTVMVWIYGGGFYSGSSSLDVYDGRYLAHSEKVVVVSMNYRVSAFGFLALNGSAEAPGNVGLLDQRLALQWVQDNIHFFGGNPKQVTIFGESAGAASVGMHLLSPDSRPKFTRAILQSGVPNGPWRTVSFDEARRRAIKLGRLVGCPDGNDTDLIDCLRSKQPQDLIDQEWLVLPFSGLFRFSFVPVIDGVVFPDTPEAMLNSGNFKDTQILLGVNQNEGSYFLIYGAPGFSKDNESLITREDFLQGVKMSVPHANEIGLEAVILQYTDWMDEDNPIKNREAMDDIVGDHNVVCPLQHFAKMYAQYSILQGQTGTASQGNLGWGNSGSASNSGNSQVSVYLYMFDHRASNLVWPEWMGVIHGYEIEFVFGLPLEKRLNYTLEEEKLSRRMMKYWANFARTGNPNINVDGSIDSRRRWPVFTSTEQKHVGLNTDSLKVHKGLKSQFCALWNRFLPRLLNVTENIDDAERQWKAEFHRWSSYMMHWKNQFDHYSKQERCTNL
T1 sequence (P81908 whole entry): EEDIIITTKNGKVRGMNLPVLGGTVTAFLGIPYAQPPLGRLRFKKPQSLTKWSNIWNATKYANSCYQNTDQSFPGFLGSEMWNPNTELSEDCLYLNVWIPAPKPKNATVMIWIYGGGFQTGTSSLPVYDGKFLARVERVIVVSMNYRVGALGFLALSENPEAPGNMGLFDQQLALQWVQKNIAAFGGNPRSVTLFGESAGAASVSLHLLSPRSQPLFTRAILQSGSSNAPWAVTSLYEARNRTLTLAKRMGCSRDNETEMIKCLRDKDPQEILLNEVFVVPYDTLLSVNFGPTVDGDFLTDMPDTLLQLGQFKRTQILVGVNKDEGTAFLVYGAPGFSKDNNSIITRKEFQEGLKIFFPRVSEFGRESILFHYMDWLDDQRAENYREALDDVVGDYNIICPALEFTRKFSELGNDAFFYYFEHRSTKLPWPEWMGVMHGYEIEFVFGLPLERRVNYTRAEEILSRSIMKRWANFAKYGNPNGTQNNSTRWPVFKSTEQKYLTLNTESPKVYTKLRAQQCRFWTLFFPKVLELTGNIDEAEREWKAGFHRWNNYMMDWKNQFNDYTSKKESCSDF

For orientation: IC50 means the point on the concentration scale where inhibition reaches its midpoint. Usually inhibition stands for the percentage by which the read-out fell short of the control. In the case of `CCOC(=O)Nc1ccc(C(=O)CCN2CCOCC2)cc1` [Compound 4, 4-(3-{4-[(ethoxycarbonyl)amino]phenyl}-3-oxopropyl)morpholin-4-ium chloride], the 50% inhibitory concentration (IC50) at AChE (electric eel) and at BuChE (equine serum) was greater than 100 µM in each case. The inhibition at 100 µM at AChE (electric eel) (at 100 µM, mean ± SD (n = 5)) was found to be 16.1 ± 4.2%; at BuChE (equine serum) (setting [1]), 17.8 ± 3.4%.

`CCOC(=O)Nc1ccc(C(=O)CCN(CC)CC)cc1` [Compound 6, (3-{4-[(ethoxycarbonyl)amino]phenyl}-3-oxopropyl)diethylazanium chloride]: the half-inhibitory concentration (IC50) on AChE (electric eel) and at BuChE (equine serum) was greater than 100 µM each time. Besides, the inhibition at 100 µM was found to be 42.2 ± 4.3% on AChE (electric eel) (at 100 µM, mean ± SD (n = 5)) and 34.2 ± 2.6% on BuChE (equine serum) (setting [1]).

Regarding `CCOC(=O)Nc1ccc(C(=O)CCN2CCCCC2)cc1` [Compound 2, 1-(3-{4-[(ethoxycarbonyl)amino]phenyl}-3-oxopropyl)piperidin-1-ium chloride], the results for the IC50 at AChE (electric eel) and on BuChE (equine serum) were 8.58 µM and greater than 100 µM, respectively. The inhibition at 100 µM on AChE (electric eel) (at 100 µM, mean ± SD (n = 5)) was determined as 77.8 ± 0.4%; at BuChE (equine serum) (setting [1]), 15.7 ± 1.9%.

For the compound `CCCCCN(C)CCC(=O)c1ccc(NC(=O)OCC)cc1.Cl` [Compound 16, (3-{4-[(ethoxycarbonyl)amino]phenyl}-3-oxopropyl)(methyl)pentylazanium chloride], the IC50 at AChE (electric eel) and on BuChE (equine serum) was greater than 100 µM each time. Also, the “AChE (%) percentage of inhibition” value at AChE (electric eel) (at 100 µM, mean ± SD (n = 5)) is 50.6 ± 1.8%. For the same compound, the inhibition at 100 µM on AChE (electric eel) (at 100 µM, mean ± SD (n = 5)) was greater than 50%; at BuChE (equine serum) (setting [1]), 46.3 ± 2%.

`CCCOC(=O)Nc1ccc(C(=O)CCN2CCOCC2)cc1` [Compound 5, 4-(3-oxo-3-{4-[(propoxycarbonyl)amino]phenyl}propyl)morpholin-4-ium chloride]: the IC50 on AChE (electric eel) and on BuChE (equine serum) was greater than 100 µM in each case. Further, the inhibition at 100 µM on AChE (electric eel) (at 100 µM, mean ± SD (n = 5)) was determined as 25.9 ± 3.2%; on BuChE (equine serum) (setting [1]), 14.4 ± 2.4%.

As to `COc1ccc2c3c1O[C@H]1C[C@@H](O)C=C[C@@]31CCN(C)C2` [Galantamine, reference compound], the inhibition at 100 µM at BuChE (equine serum) (setting [1]) was 62.1 ± 1.4%.

For `CCCN(C)CCC(=O)c1ccc(NC(=O)OCC)cc1` [Compound 15, (3-{4-[(ethoxycarbonyl)amino]phenyl}-3-oxopropyl)(methyl)propylazanium chloride], the IC50 at AChE (electric eel) and at BuChE (equine serum) was greater than 100 µM in each case. In addition, the inhibition at 100 µM on AChE (electric eel) (at 100 µM, mean ± SD (n = 5)) worked out at 45.3 ± 3.4%; at BuChE (equine serum) (setting [1]), 36.8 ± 2.1%.

As to `CCCOC(=O)Nc1ccc(C(=O)CCN2CCCCC2)cc1` [Compound 3, 1-(3-oxo-3-{4-[(propoxycarbonyl)amino]phenyl}propyl)piperidin-1-ium chloride], the IC50 was 6.57 µM at AChE (electric eel) and greater than 100 µM at BuChE (equine serum). Further, the inhibition at 100 µM at AChE (electric eel) (at 100 µM, mean ± SD (n = 5)) is 79.4 ± 0.3%; on BuChE (equine serum) (setting [1]) it was 21 ± 2.5%.

For `CCCCN(CC)CCC(=O)c1ccc(NC(=O)OCCC)cc1.Cl` [Compound 12, Butyl(ethyl)(3-{4-[(propoxycarbonyl)amino]phenyl}-3-oxopropyl)azanium chloride], the IC50 on AChE (electric eel) and on BuChE (equine serum) was greater than 100 µM in each case. The inhibition at 100 µM on AChE (electric eel) (at 100 µM, mean ± SD (n = 5)) was 38.4 ± 1.3%; at BuChE (equine serum) (setting [2]), greater than 50%. Moreover, the “BuChE (%) percentage of inhibition” value at BuChE (equine serum) (at 100 µM) is reported as 51.1 ± 3.3%.

Turning to `CCCCOC(=O)Nc1ccc(C(=O)CCN(CC)CCCC)cc1` [Compound 13, (3-{4-[(butoxycarbonyl)amino]phenyl}-3-oxopropyl)(butyl)ethylazanium chloride], the IC50 at AChE (electric eel) and at BuChE (equine serum) was greater than 100 µM in each case. Further, the inhibition at 100 µM on AChE (electric eel) (at 100 µM, mean ± SD (n = 5)) came out at 33.5 ± 3.4%; at BuChE (equine serum) (setting [1]) it was 48.7 ± 2.6%.

Consider `COC(=O)Nc1ccc(C(=O)CCN2CCCCC2)cc1` [Compound 1, 1-(3-{4-[(methoxycarbonyl)amino]phenyl}-3-oxopropyl)piperidin-1-ium chloride], for which the results for the IC50 on AChE (electric eel) and at BuChE (equine serum) were 12.7 µM and greater than 100 µM, respectively. Further, the inhibition at 100 µM at AChE (electric eel) (at 100 µM, mean ± SD (n = 5)) stood at 74.1 ± 0.9%; at BuChE (equine serum) (setting [1]), 10 ± 0.8%.

Regarding `CCCCN(CC)CCC(=O)c1ccc(NC(=O)OCC)cc1.Cl` [Compound 11, Butyl(3-{4-[(ethoxycarbonyl)amino]phenyl}-3-oxopropyl)ethylazanium chloride], the inhibition at 100 µM was 24.6 ± 1.9% on AChE (electric eel) (at 100 µM, mean ± SD (n = 5)) and greater than 50% at BuChE (equine serum) (setting [2]). Besides, the “BuChE (%) percentage of inhibition” value on BuChE (equine serum) (at 100 µM) is 51.0 ± 2.9%.

For `CCCCN(CC)CCC(=O)c1ccc(NC(=O)OC)cc1` [Compound 10, Butyl(ethyl)(3-{4-[(methoxycarbonyl)amino]phenyl}-3-oxopropyl)azanium chloride], the IC50 on AChE (electric eel) and on BuChE (equine serum) was greater than 100 µM throughout. In addition, the inhibition at 100 µM at AChE (electric eel) (at 100 µM, mean ± SD (n = 5)) came out at 23.6 ± 2.3%; on BuChE (equine serum) (setting [1]), 43.6 ± 3%.

`CCCN(C)CCC(=O)c1ccc(NC(=O)OC)cc1` [Compound 14, (3-{4-[(methoxycarbonyl)amino]phenyl}-3-oxopropyl)(methyl)propylazanium chloride]: the IC50 on AChE (electric eel) and on BuChE (equine serum) was greater than 100 µM each time. The inhibition at 100 µM on AChE (electric eel) (at 100 µM, mean ± SD (n = 5)) was 42.2 ± 1.3%; on BuChE (equine serum) (setting [1]) it was 22.3 ± 4.6%.

`CCCCN(C)CCC(=O)c1ccc(NC(=O)OCC)cc1` [Compound 8, Butyl(3-{4-[(ethoxycarbonyl)amino]phenyl}-3-oxopropyl)methylazanium chloride]: the IC50 at AChE (electric eel) and on BuChE (equine serum) was greater than 100 µM throughout. In addition, the inhibition at 100 µM is 23.5 ± 2.2% on AChE (electric eel) (at 100 µM, mean ± SD (n = 5)) and 4.7 ± 3% on BuChE (equine serum) (setting [1]).

On to `CCCCN(C)CCC(=O)c1ccc(NC(=O)OC)cc1` [Compound 7, Butyl(3-{4-[(methoxycarbonyl)amino]phenyl}-3-oxopropyl)methylazanium chloride], for which the IC50 at AChE (electric eel) and on BuChE (equine serum) was greater than 100 µM in each case. Also, the inhibition at 100 µM was determined as 38 ± 4.2% on AChE (electric eel) (at 100 µM, mean ± SD (n = 5)) and 20.4 ± 5.8% on BuChE (equine serum) (setting [1]).

In the case of `CCCCN(C)CCC(=O)c1ccc(NC(=O)OCCC)cc1` [Compound 9, Butyl(methyl)(3-oxo-3-{4-[(propoxycarbonyl)amino]phenyl}propyl)azanium chloride], the IC50 at AChE (electric eel) and at BuChE (equine serum) was greater than 100 µM each time. Besides, the inhibition at 100 µM on AChE (electric eel) (at 100 µM, mean ± SD (n = 5)) was found to be 44.5 ± 1.1%; at BuChE (equine serum) (setting [1]), 29 ± 2.9%.

`CCN(C)C(=O)Oc1cccc([C@H](C)N(C)C)c1` [Rivastigmine, reference compound]: the results for the inhibition at 100 µM on AChE (electric eel) and on BuChE (equine serum) (setting [1]) were 54.8 ± 4.4% and 72.9 ± 1.5%, respectively.
